Measured values as given in patent US4602011A, “Antimicrobial compositions and methods of using same” (Chapman Chemical Company, priority 1982, dated 1986).

Columns and labels:
[1] = test system: fungi; assay: antifungal efficacy of formulated phenolics; conditions: formulated per invention vs conventional
Source text: The antifungal efficacy of these phenolics is improved by formulation in accordance with this invention.

[2] = test system: P. aeruginosa; conditions: reference tests and manufacturer's literature; cited from earlier work
[3] = test system: Ceratocystis pilifera; assay: sugar cane pineapple disease emergence test; type: in vivo; conditions: 56 days
Protocol: The following composition was prepared and evaluated for control of pineapple disease of sugar cane (Ceratocystis pilifera):
Sugar cane seed was treated with this solution as diluted with a water carrier. Seed also was treated with benomyl, thiophanate methyl, Panoctine (9-aza-1,17-diquanidinoheptadecane triacetate), hot water and cold water. The results are tabulated below:
(2) Prior to planting, the seed was inoculated with the causal disease
organism, Ceratocystis pilifera. Emergence data was collected 56 days

[4] = test system: human skin; assay: skin irritation on human subjects; type: in vivo; conditions: undiluted on hands
Protocol: These compositions were tested for skin irritation by rubbing 2 ml of each onto the hands of six test subjects. After 60 seconds, Compositions A, B and C were rinsed off the hands with water. […] The results with Compositions D and E were observably different.
The two compositions were tested for skin irritation by placing two drops of one composition on the skin at the inside of one elbow of five test subjects and two drops of the other composition on the same spot on the other elbow of each subject. In all cases, the composition was smeared over about a one-half square inch of skin and the subjects' reactions were noted over a 20-minute test period.
The compositions were tested on three subjects for skin irritation by spreading two drops of each composition over a one square inch area of skin just below one eye of each test subject and the other composition on the same spot beneath the other eye.

[5] = test system: Aspergillis terreus (ATCC 10609); assay: minimum fungicidal concentration; type: cell-based; conditions: ppm of active ingredient; "1" means 1 or fewer
[6] = test system: Lenzites trabea (ATCC 11539); assay: minimum fungicidal concentration; type: cell-based; conditions: ppm of active ingredient; "1" means 1 or fewer
[7] = test system: Candida albicans (ATCC 10259); assay: minimum fungicidal concentration; type: cell-based; conditions: ppm of active ingredient; "1" means 1 or fewer
[8] = test system: Penicillium brevi compactum (ATCC 16024); conditions: ppm of active ingredient; "1" means 1 or fewer
[9] = test system: Trichoderma viride (ATCC 8678); conditions: ppm of active ingredient; "1" means 1 or fewer
[10] = test system: rice spot (Helminthosporium orazae and Cerocospora orazae); type: in vivo; conditions: 33 ppm active; 0 no pathogen control to 10 complete
[11] = test system: bean mildew (Erysiphe polygoni); assay: foliar spray on beans; type: in vivo; conditions: 33 ppm active; 0 no pathogen control to 10 complete
Source text: (§1) The composition of Example 23 was screened for fungal pathogen response as a foliar spray on beans and rice. The rating scale is from 0 (no pathogen control) to 10 (complete pathogen control). The concentration of active ingredient (in a water carrier) of all compositions tested is 33 parts per million (ppm). The active ingredient in the composition of Example […] is expressed in terms of Cu-8-Q and the chemical as listed below for four comparative products. The comparative products tested were Karathane (2,4-dimitro-6-(2-octyl phenyl crotonate), Vitavax (5,6-dihydro-2-methyl-1,4-oxathiin-3-carboxanilide), Daconil (tetrachloroisophthalonitrile) and Maneb (manganese ethylenebisdithiocarbamate). The plants and diseases tested were bean mildew (Erysiphe polygoni), bean rust (Uromyces phaseoli typica) and rice spot (Helminthosporium orazae and Cerocospora orazae).
(§2) The rating scale is from 0 (no pathogen control) to 10 (complete pathegon control). The concentration of active ingredient (in a water carrier) of all compositions tested is 33 parts per million (ppm). The active ingredient in the composition of Example 4 is expressed in terms of Cu-8-Q and the chemical as listed below for four comparative products. […]

[12] = test system: fungal stain and mold growth; assay: fungal stain and mold growth on dip-treated fresh-cut pine boards; conditions: 28 days
Protocol: In the examples that follow, the effectiveness of the various formulations was determined by treating freshly cut pine boards by dip immersion for 10 seconds in the formulation to be tested. The boards, along with an untreated control, were placed in a chamber for the period of time indicated and maintained at a temperature of about 80° F. and a humidity of about 70%.
At the end of the test period, the boards were removed from the chamber and rated for effectiveness in terms of percentage of total surface area covered by fungal stain and mold growth. Accordingly, the lower the percentage, the higher the effectiveness of the test formulation. […]
As further evidence of the effectiveness of antimicrobials prepared in accordance with this invention, a number of tests were conducted utilizing DDBSA as the disubstituted aryl compound of this invention as a solution with the below-listed microbicidal agents. […] Fresh-cut green pine test boards were dip-treated and evaluated for stain and mold after 30 days in the aforementioned constant atmosphere test chamber:
These compositions were diluted 1:200 with a water carrier for use, and freshly cut pine boards were dip immersed in the formulation to be tested. […] After the test period, the specimen boards were evaluated in terms of percentage of total surface area covered by fungal stain and mold growth.

[13] = test system: rice seedling emergence; type: in vivo
[14] = test system: Athlete's Foot; assay: Athlete's Foot treatment; type: in vivo, human; conditions: one case; Toluaftate 1% twice daily for eight days
Source text: The second formulation in the preceding Example was applied once daily by eight test subjects to the skin between the toes for control of "Athlete's Foot". […] Two of the cases had previously resisted control with several over-the-counter brand name antifungals. One of the two, a virulent infection, had reached the bleeding stage from deeply cracked skin and a bacterial infection started, despite twice daily application for eight days of a 1% solution of Toluaftate which has gained broad recognition for effective control of "Athlete's Foot".

[15] = test system: bean rust (Uromyces phaseoli typica); assay: foliar spray on beans; type: in vivo; conditions: 33 ppm active; 0 no pathogen control to 10 complete
Source text: as §1, §2

Oc1cc(Cl)cc(Cl)c1Cl [2,3,5-trichlorophenol]
antifungal efficacy improvement [1]: significantly higher than would be expected

Oc1ccc(Cl)cc1-c1ccccc1 [4-chloro-2-phenyl phenol]
phenol coefficient [2]: less than 10

CCCCNC(=O)n1c(NC(=O)OC)nc2ccccc21 [Benomyl, benomyl]
% Emergency, Inoculated ([3]; 150 ppm active): 50%

CCCCCCCCCCCCc1ccc(S(=O)(=O)O)cc1 [DDBSA, dodecyl benzene sulfonic acid]
skin sensation [4]: almost immediate warm and uncomfortable sensation
Minimum Fungicidal Concentration [5]: 100 ppm
Minimum Fungicidal Concentration [6]: 100 ppm
Minimum Fungicidal Concentration [7]: 1,000 ppm
Minimum Fungicidal Concentration [8]: 100 ppm
Minimum Fungicidal Concentration [9]: 100 ppm

N#Cc1c(Cl)c(Cl)c(Cl)c(C#N)c1Cl [Daconil, tetrachloroisophthalonitrile]
Rice Spot rating [10]: 10

CC=CC(=O)Oc1c(C(C)CCCCCC)cc([N+](=O)[O-])cc1[N+](=O)[O-] (stereo not drawn) [Karathane, 2,4-dimitro-6-(2-octylphenyl crotonate]
Bean Mildew rating [11]: 10

OB(O)O [Orthoboric acid]
% Stain and Mold ([12]; 0.25% in water): 86%
% Stain and Mold ([12]; 0.50% in water): 62%

Oc1ccccc1-c1ccccc1 [Orthophenyl phenol]
antifungal efficacy improvement [1]: significantly higher than would be expected

CC1=C(C(=O)Nc2ccccc2)SCCO1 [PRODUCT D, 5,6dihydro-2-methyl-1,4-oxathiim-3-carboxanilide]
Improvement over Control ([13]; 4 ounces/cwt, thirteen test plots): 12.3%
Performance Consistency ([13]; in vivo): 71.3

N=C(N)NCCCCCCCCNCCCCCCCCNC(=N)N [Panoctine, 9-aza-1,17-diquanidinoheptadecane triacetate]
% Emergency, Inoculated ([3]; 50 ppm active): 48%
% Emergency, Inoculated ([3]; 100 ppm active): 48%
% Emergency, Inoculated ([3]; 200 ppm active): 53%

COC(=O)NC(=S)Nc1ccccc1NC(=S)NC(=O)OC [Thiophanate methyl, thiophanate methyl]
% Emergency, Inoculated ([3]; 50 ppm active): 55%
% Emergency, Inoculated ([3]; 150 ppm active): 51%
% Emergency, Inoculated ([3]; 300 ppm active): 49%

Cc1cccc(N(C)C(=S)Oc2ccc3ccccc3c2)c1 [Toluaftate]
control of resistant Athlete's Foot and bacterial infection [14]: failed to control

CC1=C(C(=O)Nc2ccccc2)SCCO1 [Vitavax, 5,6-dihydro-2-methyl-1,4-oxathiin-3-carboxanilide]
Bean Rust rating [15]: 9

Oc1c(Cl)c(Cl)c(Cl)c(Cl)c1Cl [pentachlorophenol]
antifungal efficacy improvement [1]: significantly higher than would be expected

manganese ethylenebisdithiocarbamate [Maneb]
Rice Spot rating [10]: 8

tetrachlorophenol
antifungal efficacy improvement [1]: significantly higher than would be expected
